Tested on: CSM14.1 cells, thapsigargin, p-p38/p38 MSD immunoassay
Assay: dose-dependent blockade of p38 phosphorylation, dose response, mechanism study for ER stress cell death project, cell lysate, CSM14.1 cells, thapsigargin, immunoblotting (AID 1387)
Conditions: at 10 µM (top of the series)

Q: For `COc1ccc(C2CC(=O)C3=C(C2)Nc2ccccc2NC3c2cccc(Oc3ccccc3)c2)cc1OC` (stereo unspecified), which relative p-p38/p38 ratio, lower = inhibition is on record?
A: 0

Source: PubChem BioAssay AID1387 (Sanford-Burnham Center for Chemical Genomics, 2008)
